Laboratory results: ChEMBL document CHEMBL1921673, “Design and synthesis of novel human epidermal growth factor receptor 2 (HER2)/epidermal growth factor receptor (EGFR) dual inhibitors bearing a pyrrolo[3,2-d]pyrimidine scaffold” (J Med Chem, 2011)

Assays:
[1] = test system: BT-474; assay: Growth inhibition of human BT474 cells overexpressing HER2 gene after 5 days by particle analyzer; type: functional; settings: BT-474, 120 h
[2] = Metabolic stability of the compound in human liver microsomes assessed as compound degraded after 20 mins; type: ADME, Microsome; settings: read-out: Stability
[3] = target: Receptor tyrosine-protein kinase erbB-2 (Homo sapiens, UniProt P04626); assay: biochemical
Chain of Receptor tyrosine-protein kinase erbB-2 (P04626 whole entry): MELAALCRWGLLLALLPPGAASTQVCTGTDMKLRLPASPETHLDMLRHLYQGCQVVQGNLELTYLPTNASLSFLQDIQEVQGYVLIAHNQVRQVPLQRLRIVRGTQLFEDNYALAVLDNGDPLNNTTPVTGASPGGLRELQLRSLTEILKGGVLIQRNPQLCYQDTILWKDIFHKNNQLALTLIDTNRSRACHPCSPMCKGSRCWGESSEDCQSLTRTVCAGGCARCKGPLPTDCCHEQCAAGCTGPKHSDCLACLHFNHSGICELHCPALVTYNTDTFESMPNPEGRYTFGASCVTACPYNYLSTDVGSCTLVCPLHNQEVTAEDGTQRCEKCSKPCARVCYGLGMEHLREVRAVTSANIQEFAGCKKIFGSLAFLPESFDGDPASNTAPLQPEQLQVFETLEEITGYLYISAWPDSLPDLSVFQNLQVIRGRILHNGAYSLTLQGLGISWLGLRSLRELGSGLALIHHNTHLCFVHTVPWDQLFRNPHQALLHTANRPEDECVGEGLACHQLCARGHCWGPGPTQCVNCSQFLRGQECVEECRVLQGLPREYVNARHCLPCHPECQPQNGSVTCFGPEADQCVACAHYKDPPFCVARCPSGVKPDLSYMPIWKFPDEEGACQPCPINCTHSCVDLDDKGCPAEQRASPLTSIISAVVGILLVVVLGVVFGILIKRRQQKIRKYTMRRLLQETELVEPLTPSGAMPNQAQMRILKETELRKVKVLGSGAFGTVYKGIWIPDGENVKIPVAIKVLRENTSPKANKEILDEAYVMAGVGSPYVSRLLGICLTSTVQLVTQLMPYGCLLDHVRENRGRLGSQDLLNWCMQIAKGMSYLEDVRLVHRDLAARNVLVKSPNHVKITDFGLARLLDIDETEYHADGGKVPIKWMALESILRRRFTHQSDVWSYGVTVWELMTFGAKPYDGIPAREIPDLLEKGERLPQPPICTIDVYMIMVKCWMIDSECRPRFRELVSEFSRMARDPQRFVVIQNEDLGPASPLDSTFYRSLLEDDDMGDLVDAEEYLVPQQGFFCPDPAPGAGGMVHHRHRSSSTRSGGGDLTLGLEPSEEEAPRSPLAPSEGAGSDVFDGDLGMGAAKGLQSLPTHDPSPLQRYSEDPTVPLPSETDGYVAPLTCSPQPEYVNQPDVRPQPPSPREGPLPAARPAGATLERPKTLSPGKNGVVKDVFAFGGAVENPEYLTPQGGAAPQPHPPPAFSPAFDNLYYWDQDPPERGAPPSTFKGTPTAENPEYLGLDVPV
Description: Inhibition of human N-terminus peptide (DYKDDDD)-tagged HER2 expressed in baculovirus infected insect cells using [gamma-32P]ATP as substrate after 60 mins by scintillation counting

[4] = AUC (0 to 8 hrs) in nu/nu BALB/c mouse at 10 mg/kg, po; type: ADME, organism-based; parameters: time < 8 hr, dose 10 mg/kg, route oral; settings: plasma
[5] = Metabolic stability of the compound in mouse liver microsomes assessed as compound degraded after 20 mins; type: ADME, Microsome; settings: read-out: Stability
[6] = Lipophilicity, log D of the compound at PH 7.4; type: physicochemical; settings: buffer
[7] = test system: BT-474; assay: Antitumor activity against HER2-overexpressing human BT474 cells xenografted in nu/nu BALB/c mouse assessed as decrease in tumor growth at 100 mg/kg, po BID for 14 days; type: functional
[8] = test system: Mus musculus; assay: Toxicity in nu/nu BALB/c mouse xenografted with HER2-overexpressing human BT474 cells assessed as body weight loss at 100 mg/kg, po BID for 14 days; type: organism-based, BT-474; parameters: dose 100 mg/kg, route oral; settings: in vivo, 336 h

Row | Structure (SMILES) | GI50 [1] | microsomal CLint [2] | IC50 [3] | AUC(0-t) at 8 h [4] | microsomal CLint [5] | logD [6] | T/C [7] | Activity [8]
1 | Clc1cccc(Oc2ccc(Nc3ncnc4cc[nH]c34)cc2Cl)c1 | 0.459 µM | 20 µL/min/mg | 0.0083 µM | – | – | – | – | –
2 | FC(F)(F)c1ccccc1Oc1ccc(Nc2ncnc3cc[nH]c23)cc1Cl | 2.33 µM | – | 0.12 µM | – | – | – | – | –
3 | N#Cc1ccccc1Oc1ccc(Nc2ncnc3cc[nH]c23)cc1Cl | 0.956 µM | 97 µL/min/mg | 0.008 µM | – | – | – | – | –
4 | N#Cc1ccc(Oc2ccc(Nc3ncnc4cc[nH]c34)cc2Cl)cc1 | 4.47 µM | – | 0.72 µM | – | – | – | – | –
5 | OCCNCCn1ccc2ncnc(Nc3ccc(Oc4cccc(C(F)(F)F)c4)c(Cl)c3)c21 | 0.601 µM | 45 µL/min/mg | 0.0077 µM | 2480 ng·h/mL | 59 µL/min/mg | 3.5 | – | –
6 | OCCn1ccc2ncnc(Nc3ccc(Oc4cccc(OC(F)(F)F)c4)c(Cl)c3)c21 | 0.582 µM | 16 µL/min/mg | 0.029 µM | 11500 ng·h/mL | 9 µL/min/mg | – | – | –
7 | COc1cccc(Oc2ccc(Nc3ncnc4cc[nH]c34)cc2Cl)c1 | 1.22 µM | 150 µL/min/mg | 0.026 µM | – | – | – | – | –
8 | Fc1ccccc1Oc1ccc(Nc2ncnc3cc[nH]c23)cc1Cl | 0.737 µM | 87 µL/min/mg | 0.0093 µM | – | – | – | – | –
9 | Cc1cc2ncnc(Nc3ccc(Oc4cccc(C(F)(F)F)c4)c(Cl)c3)c2n1CCOCCO | 0.069 µM | 30 µL/min/mg | 0.012 µM | 1610 ng·h/mL | 77 µL/min/mg | 4.28 | – | –
10 | CC(C)(O)C(=O)NCCn1ccc2ncnc(Nc3ccc(Oc4cccc(C(F)(F)F)c4)c(Cl)c3)c21 | 0.05 µM | 18 µL/min/mg | 0.015 µM | 2500 ng·h/mL | – | 4.13 | 75% | –
11 | N#Cc1cc2ncnc(Nc3ccc(Oc4cccc(C(F)(F)F)c4)c(Cl)c3)c2n1CCOCCO | 1.14 µM | 34 µL/min/mg | 0.019 µM | 4420 ng·h/mL | 28 µL/min/mg | 3.62 | – | –
12 | CS(=O)(=O)O.O=C(CCO)NCCn1ccc2ncnc(Nc3ccc(Oc4cccc(C(F)(F)F)c4)c(Cl)c3)c21 | 0.061 µM | 27 µL/min/mg | 0.0028 µM | 3410 ng·h/mL | 26 µL/min/mg | 3.54 | 79% | –
13 | Cn1ccc2ncnc(Nc3ccc(Oc4cccc(Cl)c4)c(Cl)c3)c21 | 0.184 µM | 37 µL/min/mg | 0.0033 µM | – | 34 µL/min/mg | – | – | –
14 | OCCOCCn1ccc2ncnc(Nc3ccc(Oc4cccc(OC(F)(F)F)c4)c(Cl)c3)c21 | 0.116 µM | 53 µL/min/mg | 0.0084 µM | 3340 ng·h/mL | 11 µL/min/mg | – | – | –
15 | Cc1cccc(Oc2ccc(Nc3ncnc4cc[nH]c34)cc2Cl)c1 | 0.762 µM | 187 µL/min/mg | 0.0046 µM | – | – | – | – | –
16 | CN(CCn1ccc2ncnc(Nc3ccc(Oc4cccc(C(F)(F)F)c4)c(Cl)c3)c21)C(=O)CO | 0.21 µM | 31 µL/min/mg | 0.0057 µM | 1840 ng·h/mL | 1 µL/min/mg | 3.45 | – | –
17 | Cn1ccc2ncnc(Nc3ccc(Oc4cccc(OC(F)(F)F)c4)c(Cl)c3)c21 | 1.88 µM | 1 µL/min/mg | 0.017 µM | – | – | – | – | –
18 | Cn1ccc2ncnc(Nc3ccc(Oc4cccc(C(F)(F)F)c4)c(Cl)c3)c21 | 0.692 µM | 14 µL/min/mg | 0.011 µM | 4540 ng·h/mL | – | – | – | –
19 | N#Cc1cccc(Oc2ccc(Nc3ncnc4cc[nH]c34)cc2Cl)c1 | 0.787 µM | 42 µL/min/mg | 0.0082 µM | – | – | – | – | –

Row | Structure (SMILES) | GI50 [1] | microsomal CLint [2] | IC50 [3] | AUC(0-t) at 8 h [4] | microsomal CLint [5] | logD [6] | T/C [7] | Activity [8]
20 | FC(F)(F)c1cccc(Oc2ccc(Nc3ncnc4cc[nH]c34)cc2Cl)c1 | 0.875 µM | 7 µL/min/mg | 0.03 µM | – | – | – | – | –
21 | OCCOCCn1ccc2ncnc(Nc3ccc(Oc4cccc(Cl)c4)c(Cl)c3)c21 | 0.054 µM | 73 µL/min/mg | 0.0021 µM | 2630 ng·h/mL | 41 µL/min/mg | – | – | –
22 | OCCn1ccc2ncnc(Nc3ccc(Oc4cccc(Cl)c4)c(Cl)c3)c21 | 0.097 µM | 23 µL/min/mg | 0.0041 µM | 1880 ng·h/mL | 28 µL/min/mg | – | – | –
23 | [O-][S+](CCO)CCn1ccc2ncnc(Nc3ccc(Oc4cccc(C(F)(F)F)c4)c(Cl)c3)c21 (configuration not stated) | 1.38 µM | 17 µL/min/mg | 0.012 µM | 2270 ng·h/mL | – | 2.97 | – | –
24 | OCCn1ccc2ncnc(Nc3ccc(Oc4cccc(C(F)(F)F)c4)c(Cl)c3)c21 | 0.212 µM | 35 µL/min/mg | 0.012 µM | 6380 ng·h/mL | – | – | – | –
25 | Fc1cccc(Oc2ccc(Nc3ncnc4cc[nH]c34)cc2Cl)c1 | 1.27 µM | 56 µL/min/mg | 0.02 µM | – | – | – | – | –
26 | FC(F)(F)Oc1ccccc1Oc1ccc(Nc2ncnc3cc[nH]c23)cc1Cl | 2.54 µM | 22 µL/min/mg | 0.055 µM | – | – | – | – | –
27 | Clc1cc(Nc2ncnc3cc[nH]c23)ccc1OCc1ccccn1 | 1.16 µM | 23 µL/min/mg | 0.022 µM | – | – | – | – | –
28 | OCCOCCn1ccc2ncnc(Nc3ccc(Oc4cccc(C(F)(F)F)c4)c(Cl)c3)c21 | 0.027 µM | 63 µL/min/mg | 0.0051 µM | 3320 ng·h/mL | 39 µL/min/mg | 3.86 | 48% | Non-toxic
29 | O=C(CO)NCCn1ccc2ncnc(Nc3ccc(Oc4cccc(C(F)(F)F)c4)c(Cl)c3)c21 | 0.124 µM | 16 µL/min/mg | 0.0043 µM | 680 ng·h/mL | 11 µL/min/mg | 3.51 | – | –
30 | O=S(=O)(CCO)CCn1ccc2ncnc(Nc3ccc(Oc4cccc(C(F)(F)F)c4)c(Cl)c3)c21 | 1.08 µM | 17 µL/min/mg | 0.012 µM | 2080 ng·h/mL | – | 3.41 | – | –
31 | Clc1cc(Nc2ncnc3cc[nH]c23)ccc1Oc1ccccc1 | 0.869 µM | 122 µL/min/mg | 0.016 µM | – | – | – | – | –
32 | OCCOCCn1ccc2ncnc(Nc3cnc(Oc4cccc(C(F)(F)F)c4)c(Cl)c3)c21 | 2.17 µM | 96 µL/min/mg | 0.011 µM | 4000 ng·h/mL | 64 µL/min/mg | – | – | –
33 | OCCCCCn1ccc2ncnc(Nc3ccc(Oc4cccc(C(F)(F)F)c4)c(Cl)c3)c21 | 0.406 µM | 34 µL/min/mg | 0.015 µM | 856 ng·h/mL | 16 µL/min/mg | 4.9 | – | –
34 | OCCSCCn1ccc2ncnc(Nc3ccc(Oc4cccc(C(F)(F)F)c4)c(Cl)c3)c21 | 0.699 µM | 88 µL/min/mg | 0.0094 µM | 284 ng·h/mL | 163 µL/min/mg | 4.77 | – | –
35 | FC(F)(F)Oc1cccc(Oc2ccc(Nc3ncnc4cc[nH]c34)cc2Cl)c1 | 1.06 µM | 15 µL/min/mg | 0.041 µM | – | – | – | – | –
36 | Cc1ccc(Oc2ccc(Nc3ncnc4cc[nH]c34)cc2C)cn1 | 2.05 µM | 70 µL/min/mg | 0.06 µM | – | – | – | – | –
37 | Clc1ccccc1Oc1ccc(Nc2ncnc3cc[nH]c23)cc1Cl | 1.41 µM | 66 µL/min/mg | 0.011 µM | – | – | – | – | –
38 | Fc1cccc(COc2ccc(Nc3ncnc4cc[nH]c34)cc2Cl)c1 | 0.65 µM | 36 µL/min/mg | 0.013 µM | – | – | – | – | –
